Test results: patent US9610285B2, “Compositions for controlling food intake and uses therefor” (UNIVERSITY OF FLORIDA RESEARCH FOUNDATION, INCORPORATED, priority 2011, dated 2017)
Counter-ions that a name gives are not always drawn. Marks after values point to notes of the source that are not given here.

Legend:
Assay type in all cases: in vivo, rat
Male Sprague-Dawley rats [1] = assay: Total caloric intake following drug injections in binge-eating rats (Example 2); conditions: for Effect on total caloric intake, in words: one-way ANOVA over saline, low and high dose
Text: (§1) Male Sprague-Dawley rats, 250-300 g at the onset of the experiment, were obtained from Taconic Farms (Germantown, N.Y., USA). Rats were housed individually on a 12-h reversed light/dark cycle and given 1 wk to acclimate before diet training began.
(§2) The rats were divided into groups (n=10/group) matched for body weight and assigned to one of the following dietary conditions: (1) Binge Sugar, (2) Binge Fat or (3) Binge Sugar-Fat. All rats received palatable diets and standard rodent chow (LabDiet #5001, PMI Nutrition International, Richmond, Ind., USA; 10% fat, 20% protein, 70% carbohydrate, 3.02 kcal/g) for 12 h/day, starting 4 h after the onset of the dark cycle. Water was available ad libitum.
(§3) All palatable foods were mixed in the laboratory. The Binge Sugar group had access to a 10% (w/v) sucrose solution (Domino® Granulated Pure Cane Sugar, dissolved in tap water, 0.4 kcal/mL), the Binge Fat group had access to a 35% (w/v) fat emulsion (3.1 kcal/mL) and the Binge Sugar-Fat group had access to a 10% (w/v) sugar solution and 35% (w/v) fat emulsion (3.5 kcal/mL). Both emulsions were made with Wesson® Pure Vegetable Oil in tap water and 0.6% (w/v) Emplex, a commercially available emulsifier (American Ingredients Company, Kansas City, Mo., USA). Palatable food intakes were recorded daily. Chow intake was recorded weekly. Body weights were taken at the beginning and end of the 21-day diet period.
(§4) After 21 days on these diets, drug testing began. During testing, diet regimens were maintained. Approximately 3.5 h into the dark cycle, animals were weighed and intraperitoneal (i.p.) injections of drug were given (according to the schedule below). 30 min later (4 h into the dark cycle) palatable food and chow were made available to the rats. For the first 3 days, rats were acclimated to handling and daily vehicle injections (0.9% saline, Hospira, Lake Forest, Ill., USA, i.p. 1 mL/kg). For days 4-16 of drug testing, either vehicle or drug was alternatively administered, starting with drug on day 4. […] Intake of palatable food and chow was measured hourly after injection for 4 h and again at the end of the 12-h access period.
(§5) Palatable food and standard chow intakes following saline injections between days 4-16 were averaged. All data were analyzed using one-way ANOVAs with post hoc Multiple Comparisons, when appropriate. In Tables 4-7, values having the same letter superscript are statistically different from one another.

Male Sprague-Dawley rats [2] = assay: Standard chow intake following drug injections in binge-eating rats (Example 2); conditions: for Effect on standard chow intake, in words: one-way ANOVA over saline, low and high dose
Text: as §1, §2, §3, §4, §5

rats = assay: Binge eating rats, palatable food and chow intake (Example 1, FIGS. 1-5); conditions: drug alone, i.p., figure legends
Procedure: Baclofen (at 1.0 and 1.8 mg/kg, administered i.p.)
Baclofen+naltrexone (mixed low and mixed high)
1. Binge Sugar (10% sucrose solution, w/v)
2. Binge Fat (35% oil emulsion, w/v)
3. Binge Sugar/Fat (10% sucrose, 35% oil emulsion, w/v)
Groups of animals (rats) were maintained on their diets for 3 weeks to establish stable binge eating behavior. After this period of time, the rats were administered three days of daily i.p. injections of saline (to acclimate to the injection procedure), and sugar/chow intake was measured after the first hour of access and then hourly for the next 3 hours, as well as at the end of the 12-h access period. After this three-day period, rats were given baclofen+naloxone, and measurements taken as described above. Other dosage amounts of baclofen and naloxone were tested, as were the effects of these compounds alone (with measurements being performed as described above). Vehicle injections were performed between the various tests in order to allow for suitable clearance of compounds from the animals. […] Thus, the treatment appears ideally suited for food addicts, hedonic overeaters and changes food choice but not appetite.

Male Sprague-Dawley rats [3] = assay: Palatable food intake following drug injections in binge-eating rats (Example 2); conditions: for Effect on palatable food (fat) intake, in words / Effect on palatable food (sugar) intake, in words / Effect on palatable food (sugar-fat) intake, in words: one-way ANOVA over saline, low and high dose
Text: as §1, §2, §3, §4, §5

[4] = Binge Fat group, 1 h, high dose (naltrexone 1.0 mg/kg, baclofen 1.8 mg/kg, or both, i.p.)
[5] = Binge Fat group, 1 h, low dose (naltrexone 0.1 mg/kg, baclofen 1.0 mg/kg, or both, i.p.)
[6] = Binge Fat group, 12 h, high dose (naltrexone 1.0 mg/kg, baclofen 1.8 mg/kg, or both, i.p.)
[7] = Binge Fat group, 12 h, low dose (naltrexone 0.1 mg/kg, baclofen 1.0 mg/kg, or both, i.p.)
[8] = Binge Sugar group, 1 h, high dose (naltrexone 1.0 mg/kg, baclofen 1.8 mg/kg, or both, i.p.)
[9] = Binge Sugar group, 1 h, low dose (naltrexone 0.1 mg/kg, baclofen 1.0 mg/kg, or both, i.p.)
[10] = Binge Sugar group, 12 h, high dose (naltrexone 1.0 mg/kg, baclofen 1.8 mg/kg, or both, i.p.)
[11] = Binge Sugar group, 12 h, low dose (naltrexone 0.1 mg/kg, baclofen 1.0 mg/kg, or both, i.p.)
[12] = Binge Sugar-Fat group, 1 h, high dose (naltrexone 1.0 mg/kg, baclofen 1.8 mg/kg, or both, i.p.)
[13] = Binge Sugar-Fat group, 1 h, low dose (naltrexone 0.1 mg/kg, baclofen 1.0 mg/kg, or both, i.p.)
[14] = Binge Sugar-Fat group, 12 h, high dose (naltrexone 1.0 mg/kg, baclofen 1.8 mg/kg, or both, i.p.)
[15] = Binge Sugar-Fat group, 12 h, low dose (naltrexone 0.1 mg/kg, baclofen 1.0 mg/kg, or both, i.p.)

O=C1CC[C@@]2(O)[C@H]3Cc4ccc(O)c5c4[C@@]2(CCN3CC2CC2)[C@H]1O5 [Naltrexone, naltrexone hydrochloride]
1-H Total Caloric Intake (Male Sprague-Dawley rats [1]; [4]): 19.9 ± 3.2 kcal | 1-H Total Caloric Intake (Male Sprague-Dawley rats [1]; [5]): 20.2 ± 3.0 kcal | 12-H Total Caloric Intake (Male Sprague-Dawley rats [1]; [6]): 90.3 ± 8.3 kcal | 12-H Total Caloric Intake (Male Sprague-Dawley rats [1]; [7]): 84.0 ± 7.9 kcal | 1-H Total Caloric Intake (Male Sprague-Dawley rats [1]; [8]): 22.6 ± 1.7 kcal | 1-H Total Caloric Intake (Kcal) (Male Sprague-Dawley rats [1]; [9]): 29.9 ± 3.9^a Kcal | 12-H Total Caloric Intake (Male Sprague-Dawley rats [1]; [10]): 89.4 ± 6.4 kcal | 12-H Total Caloric Intake (Male Sprague-Dawley rats [1]; [11]): 85.4 ± 7.5 kcal | 1-H Total Caloric Intake (Male Sprague-Dawley rats [1]; [12]): 24.8 ± 4.4 kcal | 1-H Total Caloric Intake (Male Sprague-Dawley rats [1]; [13]): 23.9 ± 2.7 kcal | 12-H Total Caloric Intake (Male Sprague-Dawley rats [1]; [14]): 110.7 ± 10.7 kcal | 12-H Total Caloric Intake (Male Sprague-Dawley rats [1]; [15]): 97.0 ± 5.7 kcal | Effect on total caloric intake, in words (Male Sprague-Dawley rats [1]; Fat group, 1 h): no effect | Effect on total caloric intake, in words (Male Sprague-Dawley rats [1]; Fat group, 12 h): no effect | Effect on total caloric intake, in words (Male Sprague-Dawley rats [1]; Sugar group, 1 h): significantly increased | Effect on total caloric intake, in words (Male Sprague-Dawley rats [1]; Sugar group, 12 h): differences were no longer evident | Effect on total caloric intake, in words (Male Sprague-Dawley rats [1]; Sugar-Fat group, 1 h): no effect | Effect on total caloric intake, in words (Male Sprague-Dawley rats [1]; Sugar-Fat group, 12 h): no effect | 1-H Chow Intake (Male Sprague-Dawley rats [2]; [4]): 10.1 ± 1.2 kcal | 1-H Chow Intake (Male Sprague-Dawley rats [2]; [5]): 8.5 ± 1.1 kcal | 12-H Chow Intake (Male Sprague-Dawley rats [2]; [6]): 37.0 ± 3.4 kcal | 12-H Chow Intake (Male Sprague-Dawley rats [2]; [7]): 34.1 ± 4.3 kcal | 1-H Chow Intake (Male Sprague-Dawley rats [2]; [8]): 20.1 ± 1.3 kcal | 1-H Chow Intake (Male Sprague-Dawley rats [2]; [9]): 25.5 ± 3.2 kcal | 12-H Chow Intake (Kcal) (Male Sprague-Dawley rats [2]; [10]): 78.6 ± 4.7^b Kcal | 12-H Chow Intake (Kcal) (Male Sprague-Dawley rats [2]; [11]): 73.7 ± 5.1^a Kcal | 1-H Chow Intake (Male Sprague-Dawley rats [2]; [12]): 7.1 ± 0.9 kcal | 1-H Chow Intake (Male Sprague-Dawley rats [2]; [13]): 6.6 ± 1.0 kcal | Effect on standard chow intake, in words (Male Sprague-Dawley rats [2]; Binge Sugar-Fat group, 1 h): no effect | 12-H Chow Intake (Male Sprague-Dawley rats [2]; [14]): 27.4 ± 2.6 kcal | 12-H Chow Intake (Male Sprague-Dawley rats [2]; [15]): 26.4 ± 1.9 kcal | Effect on standard chow intake, in words (Male Sprague-Dawley rats [2]; Binge Sugar-Fat group, 12 h): no effect | Effect on standard chow intake, in words (Male Sprague-Dawley rats [2]; Fat group, 1 h): no effect | Effect on standard chow intake, in words (Male Sprague-Dawley rats [2]; Fat group, 12 h): no effect | Effect on standard chow intake, in words (Male Sprague-Dawley rats [2]; Sugar group, 1 h): no effect | Effect on standard chow intake, in words (Male Sprague-Dawley rats [2]; Sugar group, 12 h): stimulated chow intake | Effect on intake of oil-containing palatable foods (rats; oil containing groups (Binge Fat, Binge Sugar/Fat)): trend toward reducing food intake | Effect on binge eating of sugar (rats; sugar-binging rats): no effect | 1-H Palatable Food Intake (Male Sprague-Dawley rats [3]; [4]): 9.9 ± 2.0 kcal | Palatable food intake as a percent of intake after saline injections, 1-H Intake (%) (Male Sprague-Dawley rats [3]; [4]): 59% | Palatable food intake as a percent of intake after saline injections, 1-H Intake (%) (Male Sprague-Dawley rats [3]; [5]): 70% | Effect on palatable food (fat) intake, in words (Male Sprague-Dawley rats [3]; Binge Fat group, 1 h): no significant effect | 12-H Palatable Food Intake (Male Sprague-Dawley rats [3]; [6]): 53.3 ± 4.5 kcal | Palatable food intake as a percent of intake after saline injections, 12-H Intake (%) (Male Sprague-Dawley rats [3]; [6]): 91% | 12-H Palatable Food Intake (Male Sprague-Dawley rats [3]; [7]): 49.9 ± 3.6 kcal | Palatable food intake as a percent of intake after saline injections, 12-H Intake (%) (Male Sprague-Dawley rats [3]; [7]): 85% | Effect on palatable food (fat) intake, in words (Male Sprague-Dawley rats [3]; Binge Fat group, 12 h): no significant effect | 1-H Palatable Food Intake (Kcal) (Male Sprague-Dawley rats [3]; [8]): 2.6 ± 0.4^a Kcal | Palatable food intake as a percent of intake after saline injections, 1-H Intake (%) (Male Sprague-Dawley rats [3]; [8]): 92% | 1-H Palatable Food Intake (Kcal) (Male Sprague-Dawley rats [3]; [9]): 4.4 ± 0.7^a Kcal | Palatable food intake as a percent of intake after saline injections, 1-H Intake (%) (Male Sprague-Dawley rats [3]; [9]): 158% | Effect on palatable food (sugar) intake, in words (Male Sprague-Dawley rats [3]; Binge Sugar group, 1 h): significantly decreased | 12-H Palatable Food Intake (Kcal) (Male Sprague-Dawley rats [3]; [10]): 10.8 ± 1.8^r Kcal | Palatable food intake as a percent of intake after saline injections, 12-H Intake (%) (Male Sprague-Dawley rats [3]; [10]): 85% | 12-H Palatable Food Intake (Kcal) (Male Sprague-Dawley rats [3]; [11]): 18.7 ± 2.4^r Kcal | Palatable food intake as a percent of intake after saline injections, 12-H Intake (%) (Male Sprague-Dawley rats [3]; [11]): 92% | Effect on palatable food (sugar) intake, in words (Male Sprague-Dawley rats [3]; Binge Sugar group, 12 h): significantly decreased | 1-H Palatable Food Intake (Male Sprague-Dawley rats [3]; [12]): 17.6 ± 3.5 kcal | Palatable food intake as a percent of intake after saline injections, 1-H Intake (%) (Male Sprague-Dawley rats [3]; [12]): 75% | 1-H Palatable Food Intake (Male Sprague-Dawley rats [3]; [13]): 17.3 ± 1.7 kcal | Palatable food intake as a percent of intake after saline injections, 1-H Intake (%) (Male Sprague-Dawley rats [3]; [13]): 74% | Effect on palatable food (sugar-fat) intake, in words (Male Sprague-Dawley rats [3]; Binge Sugar-Fat group, 1 h): no effect | 12-H Palatable Food Intake (Male Sprague-Dawley rats [3]; [14]): 83.3 ± 8.1 kcal | Palatable food intake as a percent of intake after saline injections, 12-H Intake (%) (Male Sprague-Dawley rats [3]; [14]): 109% | 12-H Palatable Food Intake (Male Sprague-Dawley rats [3]; [15]): 70.6 ± 3.4 kcal | Palatable food intake as a percent of intake after saline injections, 12-H Intake (%) (Male Sprague-Dawley rats [3]; [15]): 92% | Effect on palatable food (sugar-fat) intake, in words (Male Sprague-Dawley rats [3]; Binge Sugar-Fat group, 12 h): no effect
